Results on ten compounds are retold here after US8754242B2, “Herbicides” (Syngenta Crop Protection LLC, priority 2007, dated 2014).

The structures appear in SMILES notation.

Type in all cases: in vivo
For assay [1], the system named is Echinochloa crus-galli (ECHCG). Put plainly: Test Example 1 post-emergence herbicidal activity. Conditions: 360 h, rate 125 g/ha, evaluated 15 days later, read-out: Post-emergence activity ECHCG (100=total damage to plant; 0=no damage to plant). An outline of the steps: (§1)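 Once sown in standard soil, pots received an aqueous spray of the formulated active ingredient, either after one day or after ten days of controlled glasshouse growth. Plants then grew under optimum greenhouse conditions. Herbicidal effect was assessed visually 15 (post-emergence) or 20 (pre-emergence) days later, 100 meaning total plant damage.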

Assay [2] has as its system Alopecurus myosuroides (ALOMY). Put plainly: Test Example 1 post-emergence herbicidal activity. Conditions: 360 h, rate 125 g/ha, evaluated 15 days later, read-out: Post-emergence activity ALOMY (100=total damage to plant; 0=no damage to plant). An outline of the steps: as §1
Assay [3] relates to Digitaria sanguinalis (DIGSA). As to the kind of experiment: Test Example 1 post-emergence herbicidal activity. To be noted: 360 h, rate 125 g/ha, evaluated 15 days later, read-out: Post-emergence activity DIGSA (100=total damage to plant; 0=no damage to plant). Summed up:
as §1

In assay [4] the test system is Lolium perenne (LOLPE). Put plainly: Test Example 1 post-emergence herbicidal activity. Conditions: 360 h, rate 125 g/ha, evaluated 15 days later, read-out: Post-emergence activity LOLPE (100=total damage to plant; 0=no damage to plant). An outline of the steps: as §1
Assay [5] relates to Avena fatua (AVEFA). Put plainly: Test Example 1 post-emergence herbicidal activity. Conditions: 360 h, rate 125 g/ha, evaluated 15 days later, read-out: Post-emergence activity AVEFA (100=total damage to plant; 0=no damage to plant). Summed up: as §1
The test system of assay [6] is Setaria faberi (SETFA). Put plainly: Test Example 1 post-emergence herbicidal activity. To be noted: 360 h, rate 125 g/ha, evaluated 15 days later, read-out: Post-emergence activity SETFA (100=total damage to plant; 0=no damage to plant). Summed up: as §1
Assay [7] has as its system Echinochloa crus-galli (ECHCG). Put plainly: Test Example 1 pre-emergence herbicidal activity. To be noted: Echinochloa crus-galli, 480 h, rate 250 g/ha, evaluated 20 days later, read-out: Pre-emergence activity ECHCG (100=total damage to plant; 0=no damage to plant). An outline of the steps:
as §1

For assay [8], the system named is Alopecurus myosuroides (ALOMY). As to the kind of experiment: Test Example 1 pre-emergence herbicidal activity. Conditions: Alopecurus myosuroides, 480 h, rate 250 g/ha, evaluated 20 days later, read-out: Pre-emergence activity ALOMY (100=total damage to plant; 0=no damage to plant). Summed up:
as §1

Assay [9] deals with Digitaria sanguinalis (DIGSA). As to the kind of experiment: Test Example 1 pre-emergence herbicidal activity. To be noted: Digitaria sanguinalis, 480 h, rate 250 g/ha, evaluated 20 days later, read-out: Pre-emergence activity DIGSA (100=total damage to plant; 0=no damage to plant). An outline of the steps: as §1
Assay [10] concerns Lolium perenne (LOLPE). As to the kind of experiment: Test Example 1 pre-emergence herbicidal activity. Conditions: Lolium perenne, 480 h, rate 250 g/ha, evaluated 20 days later, read-out: Pre-emergence activity LOLPE (100=total damage to plant; 0=no damage to plant). Summed up:
as §1

Assay [11] deals with Avena fatua (AVEFA). Put plainly: Test Example 1 pre-emergence herbicidal activity. Conditions: Avena fatua, 480 h, rate 250 g/ha, evaluated 20 days later, read-out: Pre-emergence activity AVEFA (100=total damage to plant; 0=no damage to plant). An outline of the steps:
as §1

For assay [12], the system named is Setaria faberi (SETFA). Put plainly: Test Example 1 pre-emergence herbicidal activity. Conditions: Setaria faberi, 480 h, rate 250 g/ha, evaluated 20 days later, read-out: Pre-emergence activity SETFA (100=total damage to plant; 0=no damage to plant). Summed up: as §1

With `Cc1cc(C)c(C2=C(O)[C@@H]3[C@@H]4O[C@@H]([C@H](Br)[C@H]4Br)[C@@H]3C2=O)c(C)c1` [Example T46], the pest or weed control at 125 g/ha in assay [1] was found to be 80%; in assay [2], 0%; in assay [3], 0%; in the assay on Lolium perenne (LOLPE) [4], 0%; in the assay with Avena fatua (AVEFA) [5], 0%; with Setaria faberi (SETFA) [6] it was 60%. In addition, the pest or weed control at 250 g/ha worked out at 70% in [7]; 10% in assay [8]; 20% in assay [9]; 30% in the assay on Lolium perenne (LOLPE) [10]; 0% in the assay on Avena fatua (AVEFA) [11]; 30% with Setaria faberi (SETFA) [12].
For the compound `Cc1cc(C)c(C2=C(O)[C@@H]3[C@@H]4O[C@@H](C[C@H]4c4ccc(C#N)cc4)[C@@H]3C2=O)c(C)c1` [Example T93], the pest or weed control at 125 g/ha in assay [1] was 100%; in assay [2], 60%; in [3], 100%; in the assay on Lolium perenne (LOLPE) [4], 60%; with Avena fatua (AVEFA) [5], 80%; in the assay on Setaria faberi (SETFA) [6], 100%. In addition, the pest or weed control at 250 g/ha in [7] is 0%; in assay [8] it was 40%; in assay [9] it was 30%; with Lolium perenne (LOLPE) [10], 20%; in the assay with Avena fatua (AVEFA) [11], 30%; in the assay with Setaria faberi (SETFA) [12], 30%.
In the case of `Cc1cc(C)c(C2=C(O)[C@@H]3[C@@H]4O[C@@H](C[C@H]4c4ncc(C(F)(F)F)cc4C(F)(F)F)[C@@H]3C2=O)c(C)c1` [Example T203], the pest or weed control at 125 g/ha in assay [1] came to 50%; in [2], 20%; in assay [3], 50%; with Lolium perenne (LOLPE) [4] it was 10%; in the assay with Avena fatua (AVEFA) [5] it was 10%; in the assay on Setaria faberi (SETFA) [6] it was 0%. In addition, the pest or weed control at 250 g/ha was found to be 90% in assay [7]; 20% in assay [8]; 70% in assay [9]; 60% in the assay with Lolium perenne (LOLPE) [10]; 20% in the assay on Avena fatua (AVEFA) [11]; 70% in the assay on Setaria faberi (SETFA) [12].
Turning to `CCc1cc(C)cc(CC)c1C1=C(O)[C@@H]2[C@@H]3O[C@@H](C[C@H]3c3ccccc3[N+](=O)[O-])[C@@H]2C1=O` [Example T177], the pest or weed control at 125 g/ha was 80% in assay [1]; 80% in assay [2]; 30% in [3]; 30% with Lolium perenne (LOLPE) [4]; 70% in the assay on Avena fatua (AVEFA) [5]; 20% in the assay with Setaria faberi (SETFA) [6]. Besides, the pest or weed control at 250 g/ha in assay [7] came to 70%; in [8], 60%; in [9], 10%; in the assay with Lolium perenne (LOLPE) [10], 70%; in the assay with Avena fatua (AVEFA) [11], 50%; with Setaria faberi (SETFA) [12], 50%.
Regarding `CCc1cc(C)cc(CC)c1C1=C(O)[C@@H]2[C@@H]3O[C@@H](C[C@H]3c3ccc([N+](=O)[O-])cc3Cl)[C@@H]2C1=O` [Example T167], the pest or weed control at 125 g/ha in [1] came out at 100%; in assay [2] it was 80%; in assay [3], 70%; in the assay on Lolium perenne (LOLPE) [4], 50%; with Avena fatua (AVEFA) [5], 50%; in the assay on Setaria faberi (SETFA) [6], 70%. Moreover, the pest or weed control at 250 g/ha in assay [7] stood at 50%; in assay [8], 30%; in [9] it was 30%; in the assay with Lolium perenne (LOLPE) [10], 40%; in the assay on Avena fatua (AVEFA) [11], 40%; with Setaria faberi (SETFA) [12], 0%.
With `CCc1cc(C)cc(CC)c1C1=C(O)[C@@H]2[C@@H]3O[C@@H](C[C@H]3c3cc(F)cc(F)c3)[C@@H]2C1=O` [Example T173], the pest or weed control at 125 g/ha was 100% in assay [1]; 100% in assay [2]; 70% in [3]; 90% with Lolium perenne (LOLPE) [4]; 90% with Avena fatua (AVEFA) [5]; 90% in the assay on Setaria faberi (SETFA) [6]. The pest or weed control at 250 g/ha was 70% in assay [7]; 90% in [8]; 70% in [9]; 100% in the assay on Lolium perenne (LOLPE) [10]; 70% in the assay with Avena fatua (AVEFA) [11]; 60% in the assay with Setaria faberi (SETFA) [12].
For the compound `Cc1cc(C)c(C2=C(O)[C@@H]3[C@@H]4O[C@@H](C[C@H]4c4ccc(OC(F)(F)F)cc4)[C@@H]3C2=O)c(C)c1` [Example T91], the pest or weed control at 125 g/ha in [1] was 100%; in assay [2], 90%; in [3], 100%; in the assay on Lolium perenne (LOLPE) [4], 50%; in the assay on Avena fatua (AVEFA) [5] it was 90%; in the assay with Setaria faberi (SETFA) [6], 100%. Moreover, the pest or weed control at 250 g/ha in assay [7] turned out to be 50%; in assay [8] it was 20%; in assay [9], 70%; with Lolium perenne (LOLPE) [10], 20%; with Avena fatua (AVEFA) [11], 50%; with Setaria faberi (SETFA) [12], 50%.
Regarding `C#CCOC(=O)OC1=C(c2c(C)cc(C)cc2C)C(=O)[C@@H]2[C@H]1[C@H]1CC[C@@H]2O1` (racemic) [Example P3], the pest or weed control at 125 g/ha was 100% in assay [1]; 100% in assay [2]; 70% in assay [3]; 100% with Lolium perenne (LOLPE) [4]; 90% in the assay with Avena fatua (AVEFA) [5]; 80% with Setaria faberi (SETFA) [6]. Moreover, the pest or weed control at 250 g/ha in assay [7] worked out at 100%; in [8] it was 100%; in assay [9] it was 90%; in the assay on Lolium perenne (LOLPE) [10], 100%; in the assay on Avena fatua (AVEFA) [11] it was 100%; in the assay with Setaria faberi (SETFA) [12] it was 90%.
As for `CCc1cc(C)cc(CC)c1C1=C(O)[C@@H]2[C@@H]3O[C@@H](C[C@H]3c3ccc(C)cc3)[C@@H]2C1=O` (racemic) [Example T180], the pest or weed control at 125 g/ha in [1] worked out at 100%; in assay [2], 90%; in assay [3] it was 90%; in the assay on Lolium perenne (LOLPE) [4] it was 70%; with Avena fatua (AVEFA) [5], 70%; in the assay with Setaria faberi (SETFA) [6], 100%. For the same compound, the pest or weed control at 250 g/ha in assay [7] worked out at 60%; in assay [8], 30%; in [9] it was 80%; in the assay on Lolium perenne (LOLPE) [10], 70%; in the assay with Avena fatua (AVEFA) [11], 20%; with Setaria faberi (SETFA) [12] it was 40%.
Regarding `CCc1cc(C)cc(CC)c1C1=C(O)[C@@H]2[C@@H]3O[C@@H](C[C@H]3c3cc(OC)c(OC)c(OC)c3)[C@@H]2C1=O` (racemic) [Example T181], the pest or weed control at 125 g/ha in [1] stood at 100%; in assay [2], 90%; in [3] it was 80%; in the assay with Lolium perenne (LOLPE) [4] it was 80%; with Avena fatua (AVEFA) [5] it was 90%; in the assay on Setaria faberi (SETFA) [6], 100%. In addition, the pest or weed control at 250 g/ha was found to be 100% in assay [7]; 40% in [8]; 90% in [9]; 80% with Lolium perenne (LOLPE) [10]; 40% with Avena fatua (AVEFA) [11]; 70% in the assay on Setaria faberi (SETFA) [12].
